Holding throughout (type): cell-based
The test system of one test is collagen 3. Nature of the test: In-vitro liver fibrosis model in activated LX2 cells (TGFβ1), qPCR: collagen 3. Particulars: LX-2 cells activated with TGFβ1 (5 ng/mL), 25 μM compound, 24 hours, real-time PCR. The protocol: (§1) This experiment was performed strictly in accordance with the instructions of the Total RNA Kit. The steps were as follows (note: this experiment was performed on ice throughout the entire process, and special RNase-free tips were used throughout the entire process): • 1) The 12-well cell culture plate was taken out from the incubator, the cell culture medium was discarded, the cells were washed twice with 1 mL of 1×PBS, and a negative pressure suction device was used to fully remove PBS; • 2) 350 μL of TRK Lysis Buffer mixture/well was prepared as needed (mixture preparation method: 1 mL of TRKLysis Buffer+20 μL of β-mercaptoethanol), vortexed and mixed well. 350 μL was added to each well of the 12-well cell culture plate, and allowed to stand at room temperature for 5 minutes to fully lyse the cells; • 3) 70% ethanol/well was prepared as needed, vortexed and mixed well. 350 μL was added to each well of the 12-well cell culture plate, mixed well by shaking, and transferred to the spin column (spin column+collection tube were assembled); • 4) Centrifugation was performed at 4° C., 12000 g for 60 sec. […]

The next test has as its system COL1A2. The test can be described thus: In vitro efficacy in semi-activated LX2 cells, qPCR: COL1A2. To be noted: Homo sapiens, LX-2, 48 hours, Q-PCR, read-out: COL1A2 mRNA inhibition rate. The method, then: Test compounds were added to the LX-2 cells respectively, and total RNA in the cells was extracted 48 hours later. This experiment was performed strictly in accordance with the instructions of the Total RNA Kit. The steps were as follows (note: this experiment was performed on ice throughout the entire process, and special RNase-free tips were used throughout the entire process): • 1) The 12-well cell culture plate was taken out from the incubator, the cell culture medium was discarded, the cells were washed twice with 1 mL of 1×PBS, and a negative pressure suction device was used to fully remove PBS; • 2) 350 μL of TRK Lysis Buffer mixture/well was prepared as needed (mixture preparation method: 1 mL of TRKLysis Buffer+20 μL of β-mercaptoethanol), vortexed and mixed well. 350 μL was added to each well of the 12-well cell culture plate, and allowed to stand at room temperature for 5 minutes to fully lyse the cells; • 3) 70% ethanol/well was prepared as needed, vortexed and mixed well. 350 μL was added to each well of the 12-well cell culture plate, mixed well by shaking, and transferred to the spin column (spin column+collection tube were assembled); • 4) Centrifugation was performed at 4° C., 12000 g for 60 sec. The waste liquid was discarded after centrifugation, while the spin column was kept; • 5) 500 μL of RNA Wash Buffer I was added, centrifuged at 4° C., 12000 g for 60 sec, the waste liquid was discarded after centrifugation, and the collection column was kept; • 6) 500 μL of RNA Wash Buffer II (confirmed that ethanol had been added) was added, centrifuged at 4° C., 12000 g for 60 sec, the waste liquid was discarded after centrifugation, and the collection column was kept; • 7) step 6) was repeated once again, centrifugation was performed at 4° C., 12000 g for 90 sec, the waste liquid was discarded after centrifugation, and the collection column was kept; • 8) Centrifugation was performed at 4° C., 12000 g for 120 sec to ensure that the spin column was fully dried; • 9) The dried spin column was inserted into a new 1.5 mL EP tube, and 30 μL of DEPC water was added to the membrane in the center of the spin column. It should be careful not to touch the EP tube cover in this step. It was allowed to stand at room temperature for 5 minutes to ensure that the RNA was fully dissolved in DEPC water. Centrifugation was performed at 4° C., 12000 g for 60 sec, and the EP tube was kept; • 10) NanoDrop ultra-micro-volume spectrophotometer was used to detect RNA concentration;
5.2 Reverse transcription of RNA into cDNA: According to the instructions of PrimeScript™ RT reagent Kit (Perfect Real Time), the specific experimental steps were as follows:
5.3 Q-PCR detection of target gene expression: According to the instructions of Power SYBR® Green PCR Master Mix, the specific operations were as follows:
After the reaction was completed, the amplification curve and dissolution curve of Q-PCR were confirmed, and the relative quantification method ([…]) was used to perform data analysis on the experimental results.
LX2 cells were passaged and plated normally. After adherent growth for 12 hours, 50 µM of the test compound was added. After 48 hours, the cells were collected, total RNA was extracted, and Q-PCR was used to detect the changes in the mRNA expression levels of liver fibrosis-related genes (ACTA2 encoding α-SMA, COL1A1 and COLIA2 encoding collagen I, COL3A1 encoding collagen III, SMAD3 encoding Smad3) and inflammation-related genes (IL1β encoding IL-1β, TNFα encoding TNFα) (for specific methods, see 5. Q-PCR detection of target gene expression as described above). α-SMA was a marker of hepatic stellate cell activation, and collagen I and collagen III were the main components of extracellular matrix deposition.

The subject of the next test is α-SMA. Nature of the test: In-vitro liver fibrosis model in activated LX2 cells (TGFβ1), qPCR: α-SMA. To be noted: LX-2 cells activated with TGFβ1 (5 ng/mL), 25 μM compound, 24 hours, real-time PCR. The method, then: as §1
The test system of a further test is collagen 1. Nature of the test: In-vitro liver fibrosis model in activated LX2 cells (TGFβ1), qPCR: collagen 1. To be noted: LX-2 cells activated with TGFβ1 (5 ng/mL), 25 μM compound, 24 hours, real-time PCR. The protocol:
as §1

With `COC(=O)[C@@H](N)CC(=O)O` [Compound 4], the “collagen 3 gene expression inhibition rate” value in the test with collagen 3 was “A (A represented that the inhibition rate was 25% or above)”. For the same compound, the inhibition at 50 µM in the test with COL1A2 fell in the range of 1 to 10%. Further, in the test on α-SMA, the “α-SMA gene expression inhibition rate” value was “B (B represented that the inhibition rate was 10% to 25%)”. For the same compound, the “collagen 1 gene expression inhibition rate” value with collagen 1 is reported as “A (A represented that the inhibition rate was 25% or above)”.
For `COC(=O)C[C@H](N)C(=O)O` [Compound 6], in the test with collagen 3, the “collagen 3 gene expression inhibition rate” value is “A (A represented that the inhibition rate was 25% or above)”. Also, the inhibition at 50 µM in the test with COL1A2 lay within 1 to 10%. The “α-SMA gene expression inhibition rate” value in the test with α-SMA is “A (A represented that the inhibition rate was 25% or above)”. Also, the “collagen 1 gene expression inhibition rate” value with collagen 1 is “B (B represented that the inhibition rate was 10% to 25%)”.

The values above are taken from patent publication US20250025438A1, “Derivative of aspartic acid and use thereof in treatment of metabolic diseases such as hepatic fibrosis and non-alcoholic hepatitis” (SHENZHEN JINGTAI TECHNOLOGY CO., LTD., priority 2021, published 2025).
